According to patent publication US12077503B2, “Substituted cyclic amides and their use as herbicides” (FMC CORPORATION, priority 2015, dated 2024):

How the values were obtained:
Type in all cases: in vivo
[1] = test system: pigweed (Amaranthus retroflexus); test: Test A postemergence; conditions: postemergence, 0 to 100 scale (0 no effect, 100 complete control)
Method in brief: (§1)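 Ratings of 0 (no effect) to 100 (complete control) come from visual comparison with untreated controls roughly 10 d after treatment. Test chemicals, formulated in a non-phytotoxic solvent mixture with surfactant, were applied either as a preemergence directed soil spray on seeded soil or postemergence to one- to two-leaf plants 2 to 10 cm tall.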

[2] = test system: ragweed (common ragweed, Ambrosia elatior); test: Test A postemergence; conditions: postemergence, 0 to 100 scale (0 no effect, 100 complete control)
Method in brief: as §1

[3] = test system: Galium (catchweed bedstraw, Galium aparine); test: Test A postemergence; conditions: postemergence, 0 to 100 scale (0 no effect, 100 complete control)
Method in brief: as §1

[4] = test system: giant foxtail (Setaria faberii); test: Test A postemergence; conditions: postemergence, 0 to 100 scale (0 no effect, 100 complete control)
Method in brief: as §1

Kochia (Kochia scoparia) [5] = test: Test A postemergence; conditions: postemergence, 0 to 100 scale (0 no effect, 100 complete control)
Method in brief: as §1

[6] = test system: barnyardgrass (Echinochloa crus-galli); test: Test A postemergence; conditions: postemergence, 0 to 100 scale (0 no effect, 100 complete control)
Method in brief: as §1

corn (Zea mays) = test: Test A postemergence; conditions: postemergence, 0 to 100 scale (0 no effect, 100 complete control)
Method in brief: as §1

[7] = test system: blackgrass (Alopecurus myosuroides); test: Test A postemergence; conditions: postemergence, 0 to 100 scale (0 no effect, 100 complete control)
Method in brief: as §1

[8] = test system: ryegrass, Italian (Italian ryegrass, Lolium multiflorum); test: Test A postemergence; conditions: postemergence, 0 to 100 scale (0 no effect, 100 complete control)
Method in brief: as §1

[9] = test system: wheat (Triticum aestivum); test: Test A postemergence; conditions: postemergence, 0 to 100 scale (0 no effect, 100 complete control)
Method in brief: as §1

[10] = test system: sedge, umbrella (small-flower umbrella sedge, Cyperus difformis); test: Test C flooded paddy test; conditions: Flood; for Plant response rating, Sedge, Umbrella: 31 g ai/ha, scale 0 to 100 (0 no effect, 100 complete control), 13 to 15 d; for Plant response rating (scale of 0 to 100), Sedge, Umbrella: 0 is no effect, 100 is complete control
Text: (§2) Plant species in the flooded paddy test consisted of rice (Oryza sativa), sedge, umbrella (small-flower umbrella sedge, Cyperus difformis), ducksalad (Heteranthera limosa), and barnyardgrass (Echinochloa crus-galli) grown to the 2-leaf stage for testing. At time of treatment, test pots were flooded to 3 cm above the soil surface, treated by application of test compounds directly to the paddy water, and then maintained at that water depth for the duration of the test. Treated plants and controls were maintained in a greenhouse for 13 to 15 d, after which time all species were compared to controls and visually evaluated. Plant response ratings, summarized in Table C, are based on a scale of 0 to 100 where 0 is no effect and 100 is complete control. A dash (-) response means no test result.

rice (Oryza sativa) = test: Test C flooded paddy test; conditions: Flood; for Plant response rating, Rice: 31 g ai/ha, scale 0 to 100 (0 no effect, 100 complete control), 13 to 15 d; for Plant response rating (scale of 0 to 100), Rice: 0 is no effect, 100 is complete control
Text: as §2

[11] = test system: ducksalad (Heteranthera limosa); test: Test C flooded paddy test; conditions: Flood; for Plant response rating, Ducksalad: 31 g ai/ha, scale 0 to 100 (0 no effect, 100 complete control), 13 to 15 d; for Plant response rating (scale of 0 to 100), Ducksalad: 0 is no effect, 100 is complete control
Text: as §2

[12] = test system: barnyardgrass (Echinochloa crus-galli); test: Test C flooded paddy test; conditions: Flood; for Plant response rating, Barnyardgrass: 31 g ai/ha, scale 0 to 100 (0 no effect, 100 complete control), 13 to 15 d; for Plant response rating (scale of 0 to 100), Barnyardgrass: 0 is no effect, 100 is complete control
Text: as §2

[13] = test system: sedge, umbrella (small-flower umbrella sedge, Cyperus difformis); test: Test B flooded paddy test; conditions: Flood, 250 g ai/ha; 0 to 100 scale where 0 is no effect and 100 is complete control; 13 to 15 d
Method in brief: (§3)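 Visual ratings (0 none to 100 complete control) are relative to untreated plants, taken 13–15 d after treatment in a greenhouse. Test material went straight into floodwater standing 3 cm above the soil, kept constant, on plants at the 2-leaf stage.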

rice (Oryra sativa) = test: Test B flooded paddy test; conditions: Flood, 250 g ai/ha; 0 to 100 scale where 0 is no effect and 100 is complete control; 13 to 15 d
Method in brief: as §3

[14] = test system: ducksalad (Heteranthera limosa); test: Test B flooded paddy test; conditions: Flood, 250 g ai/ha; 0 to 100 scale where 0 is no effect and 100 is complete control; 13 to 15 d
Method in brief: as §3

[15] = test system: barnyardgrass (Echinochloa crus-galli); test: Test B flooded paddy test; conditions: Flood, 250 g ai/ha; 0 to 100 scale where 0 is no effect and 100 is complete control; 13 to 15 d
Method in brief: as §3

[16] = test system: pigweed (Amaranthus retroflexus); test: Test A preemergence
[17] = test system: ragweed (common ragweed, Ambrosia elatior); test: Test A preemergence
Method in brief: as §1

[18] = test system: giant foxtail (Setaria faberii); test: Test A preemergence
Method in brief: as §1

Kochia (Kochia scoparia) [19] = test: Test A preemergence
Method in brief: as §1

[20] = test system: barnyardgrass (Echinochloa crus-galli); test: Test A preemergence
Method in brief: as §1

[21] = test system: ryegrass, Italian (Italian ryegrass, Lolium multiflorum); test: Test A preemergence
Method in brief: as §1

[22] = 125 g ai/ha, visual rating after approx. 10 d
[23] = 500 g ai/ha, visual injury, approx. 10 d
[24] = 125 g ai/ha, Preemergence, visual injury after approximately 10 d, 0 to 100 scale where 0 is no effect and 100 is complete control
[25] = 500 g ai/ha, preemergence, 0 to 100 scale, 0 = no effect, 100 = complete control

CN1CC(c2cc(F)cc(F)c2)C(C(=O)Nc2ccc(F)cc2F)C1=O (centres unmarked) [Compound 645]
Plant response rating, Pigweed [1, 22]: 0
Plant response rating, Pigweed [1, 23]: 0
Plant response rating, Ragweed [2, 22]: 10
Plant response rating, Ragweed [2, 23]: 20
Plant response rating, Galium [3, 22]: 50
Plant response rating, Galium [3, 23]: 50
Plant response rating, Foxtail, Giant [4, 22]: 90
Plant response rating, Foxtail, Giant [4, 23]: 90
Plant response rating, Kochia (Kochia (Kochia scoparia) [5]; [22]): 0
Plant response rating, Kochia (Kochia (Kochia scoparia) [5]; [23]): 50
Plant response rating, Barnyardgrass [6, 22]: 90
Plant response rating, Barnyardgrass [6, 23]: 90
Plant response rating, Corn (corn (Zea mays); [22]): 20
Plant response rating, Corn (corn (Zea mays); [23]): 60
Plant response rating, Blackgrass [7, 22]: 60
Plant response rating, Blackgrass [7, 23]: 70
Plant response rating, Ryegrass, Italian [8, 22]: 20
Plant response rating, Ryegrass, Italian [8, 23]: 50
Plant response rating, Wheat [9, 22]: 30
Plant response rating, Wheat [9, 23]: 50
Plant response rating, Sedge, Umbrella [10]: 0
Plant response rating (scale of 0 to 100), Sedge, Umbrella ([10]; 62 g ai/ha): 0
Plant response rating (scale of 0 to 100), Sedge, Umbrella ([10]; 125 g ai/ha): 0
Plant response rating (scale of 0 to 100), Sedge, Umbrella ([10]; 250 g ai/ha): 0
Plant response rating, Rice (rice (Oryza sativa)): 0
Plant response rating (scale of 0 to 100), Rice (rice (Oryza sativa); 62 g ai/ha): 0
Plant response rating (scale of 0 to 100), Rice (rice (Oryza sativa); 125 g ai/ha): 0
Plant response rating (scale of 0 to 100), Rice (rice (Oryza sativa); 250 g ai/ha): 0
Plant response rating, Ducksalad [11]: 30
Plant response rating (scale of 0 to 100), Ducksalad ([11]; 62 g ai/ha): 60
Plant response rating (scale of 0 to 100), Ducksalad ([11]; 125 g ai/ha): 80
Plant response rating (scale of 0 to 100), Ducksalad ([11]; 250 g ai/ha): 95
Plant response rating, Barnyardgrass [12]: 30
Plant response rating (scale of 0 to 100), Barnyardgrass ([12]; 62 g ai/ha): 40
Plant response rating (scale of 0 to 100), Barnyardgrass ([12]; 125 g ai/ha): 65
Plant response rating (scale of 0 to 100), Barnyardgrass ([12]; 250 g ai/ha): 75
Plant response rating, Sedge, Umbrella [13]: 0
Plant response rating, Rice (rice (Oryra sativa)): 0
Plant response rating, Ducksalad [14]: 100
Plant response rating, Barnyardgrass [15]: 80
Plant response rating, Pigweed [16, 24]: 0
Plant response rating, Pigweed [16, 25]: 50
Plant response rating, Ragweed [17, 24]: 0
Plant response rating, Ragweed [17, 25]: 20
Plant response rating, Foxtail, Giant [18, 24]: 90
Plant response rating, Foxtail, Giant [18, 25]: 90
Plant response rating, Kochia (Kochia (Kochia scoparia) [19]; [24]): 0
Plant response rating, Kochia (Kochia (Kochia scoparia) [19]; [25]): 60
Plant response rating, Barnyardgrass [20, 24]: 90
Plant response rating, Barnyardgrass [20, 25]: 90
Plant response rating, Ryegrass, Italian [21, 24]: 20
Plant response rating, Ryegrass, Italian [21, 25]: 60

Cc1ccc(C2CN(C)C(=O)C2C(=O)Nc2ccccc2F)cc1 (centres unmarked) [Compound 661]
Plant response rating, Pigweed [1, 22]: 0
Plant response rating, Pigweed [1, 23]: 0
Plant response rating, Ragweed [2, 22]: 10
Plant response rating, Ragweed [2, 23]: 50
Plant response rating, Galium [3, 22]: 50
Plant response rating, Galium [3, 23]: 60
Plant response rating, Foxtail, Giant [4, 22]: 90
Plant response rating, Foxtail, Giant [4, 23]: 90
Plant response rating, Kochia (Kochia (Kochia scoparia) [5]; [22]): 60
Plant response rating, Kochia (Kochia (Kochia scoparia) [5]; [23]): 70
Plant response rating, Barnyardgrass [6, 22]: 90
Plant response rating, Barnyardgrass [6, 23]: 90
Plant response rating, Corn (corn (Zea mays); [22]): 50
Plant response rating, Corn (corn (Zea mays); [23]): 90
Plant response rating, Blackgrass [7, 22]: 50
Plant response rating, Blackgrass [7, 23]: 70
Plant response rating, Ryegrass, Italian [8, 22]: 30
Plant response rating, Ryegrass, Italian [8, 23]: 80
Plant response rating, Wheat [9, 22]: 30
Plant response rating, Wheat [9, 23]: 80
Plant response rating, Sedge, Umbrella [10]: 0
Plant response rating (scale of 0 to 100), Sedge, Umbrella ([10]; 62 g ai/ha): 0
Plant response rating (scale of 0 to 100), Sedge, Umbrella ([10]; 125 g ai/ha): 0
Plant response rating (scale of 0 to 100), Sedge, Umbrella ([10]; 250 g ai/ha): 0
Plant response rating, Rice (rice (Oryza sativa)): 0
Plant response rating (scale of 0 to 100), Rice (rice (Oryza sativa); 62 g ai/ha): 0
Plant response rating (scale of 0 to 100), Rice (rice (Oryza sativa); 125 g ai/ha): 0
Plant response rating (scale of 0 to 100), Rice (rice (Oryza sativa); 250 g ai/ha): 10
Plant response rating, Ducksalad [11]: 65
Plant response rating (scale of 0 to 100), Ducksalad ([11]; 62 g ai/ha): 75
Plant response rating (scale of 0 to 100), Ducksalad ([11]; 125 g ai/ha): 95
Plant response rating (scale of 0 to 100), Ducksalad ([11]; 250 g ai/ha): 100
Plant response rating, Barnyardgrass [12]: 25
Plant response rating (scale of 0 to 100), Barnyardgrass ([12]; 62 g ai/ha): 70
Plant response rating (scale of 0 to 100), Barnyardgrass ([12]; 125 g ai/ha): 80
Plant response rating (scale of 0 to 100), Barnyardgrass ([12]; 250 g ai/ha): 85
Plant response rating, Sedge, Umbrella [13]: 0
Plant response rating, Rice (rice (Oryra sativa)): 10
Plant response rating, Ducksalad [14]: 100
Plant response rating, Barnyardgrass [15]: 80
Plant response rating, Pigweed [16, 24]: 0
Plant response rating, Pigweed [16, 25]: 40
Plant response rating, Ragweed [17, 24]: 70
Plant response rating, Ragweed [17, 25]: 80
Plant response rating, Foxtail, Giant [18, 24]: 90
Plant response rating, Foxtail, Giant [18, 25]: 100
Plant response rating, Kochia (Kochia (Kochia scoparia) [19]; [24]): 50
Plant response rating, Kochia (Kochia (Kochia scoparia) [19]; [25]): 70
Plant response rating, Barnyardgrass [20, 24]: 90
Plant response rating, Barnyardgrass [20, 25]: 90
Plant response rating, Ryegrass, Italian [21, 24]: 30
Plant response rating, Ryegrass, Italian [21, 25]: 50
